# In PMC12217109, “Development of novel benzamide class I selective lysine deacetylase inhibitors as potent anticancer agents” (Journal of Enzyme Inhibition and Medicinal Chemistry, 2025):
# Legend:
# [1] = test system: MCF7 breast cancer cell line; assay: MTT cellular viability assay, MCF7; assay type: cell-based; conditions: Homo sapiens, 96 h
# Method: The human A2780 ovarian (#93112519) and MCF-7 breast (#86012803) cancer cell lines were obtained from the European Cell Culture Collection (ECACC; Salisbury, UK). The human cardiac ventricular AC16 cell line (#SCC109) was obtained from Merck/Millipore (UK). The A2780 and MCF-7 cell lines were maintained in RPMI-1640 medium and the AC16 cell line was maintained in DMEM/F12 medium. Culture medium of all three cell lines was supplemented with 10% heat-inactivated foetal bovine serum (FBS) and 2 mM L-glutamine, with the cells maintained in a humidified 5% CO2 atmosphere at 37 °C. The media was changed every 72h and the cells passaged via trypsinisation (Trypsin EDTA, 0.25%) before reaching confluency.
# Cytotoxicity of each compound against the cell lines was assessed using the MTT assay. Cells were seeded in three replicates into 96-well plates at a density of 2 × 10^3/well for 24h to facilitate cell attachment. Media was replaced with that containing either test compound (0–10µM) for A2780 and MCF7 cell lines, single concentration (10 µM) test compound for AC16 cell line, or drug vehicle (dimethyl sulphoxide; DMSO) and the cells incubated for a further 96 h at 37 °C in a humidified 5% CO2 atmosphere. […] Chemosensitivity was thereafter assessed using a standard 3-[4, 5-dimethylthiazolyl]-2,5-diphenyltetrazolium bromide (MTT) assay, with the optical density determined at 540 nm as an indicator of cellular viability.
# [2] = test system: HeLa nuclear KDACs; set-up: method as in Beckers et al.[46]; conditions: ref Beckers et al.[46]; read-out: HDAC Inhibition IC50; cited from earlier work
# [3] = target: HDAC11 (Homo sapiens, UniProt Q96DB2); set-up: method as in PMID 32608981; conditions: read-out: HDAC11 IC50; compiled data, ref [13]; cited from earlier work
# [4] = test system: class I HDACs; set-up: method as in PMID 31938461; conditions: ref [91]; cited from earlier work
# Sequence of HDAC11 (Q96DB2 whole entry): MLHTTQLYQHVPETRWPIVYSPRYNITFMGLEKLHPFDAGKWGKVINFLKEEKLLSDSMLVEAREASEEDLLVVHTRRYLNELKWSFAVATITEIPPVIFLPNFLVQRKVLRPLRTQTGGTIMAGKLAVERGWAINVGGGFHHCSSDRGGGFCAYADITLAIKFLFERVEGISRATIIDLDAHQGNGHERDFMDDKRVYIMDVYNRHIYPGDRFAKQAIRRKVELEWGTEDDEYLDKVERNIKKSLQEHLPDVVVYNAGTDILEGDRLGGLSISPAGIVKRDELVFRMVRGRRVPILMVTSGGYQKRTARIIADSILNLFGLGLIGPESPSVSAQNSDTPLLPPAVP
SMILES,IC50 [1] [µM],IC50 [2] [µM],IC50 [3] [µM],IC50 [4] [µM]
"CC(=O)Nc1ccc(C(=O)Nc2ccccc2N)cc1 [Compound 2, Tacedinaline]",11.6 ± 1.1,8.5 ± 5.4,> 10,–
Nc1cc(F)ccc1NC(=O)c1ccc(CNC(=O)/C=C/c2cccnc2)cc1 [chidamide],–,–,–,0.11 to 0.33
